Assay results published in patent US20220354949A1, “NOVEL COMPOUNDS” (XENIOPRO GmbH, priority 2018, published 2022).

Legend:
Format in all cases: cell-based
[1] = system: RPMI-8402 cells (human T cell acute lymphoblastic leukemia cells); test: Proliferation assay (alamarBlue) with RPMI-8402 cells; conditions: control at 40 μM, relative to DMSO basis level 1.0, Table 62
Description: (§1) The antiproliferative activities of compounds falling under formula (Ia), (Ib) and (Ic), respectively, were investigated on cells or cell lines originating from a disorder of the haematopoietic system, including the myeloid cell compartment and the lymphoid cell compartment (T-cells and B-cells), the neuroendocrine system, the cervix, the breast, the ovaries, the lung, the gastrointestinal tract, and the mucosal epithelium, as well as from the skin epithelium and from the muscle. To this end, HL-60 cells, NB-4 cells, HH cells, RPMI-8402 cells, TANOUE cells, TT cells, HeLa cells, MDA-MB-231 cells, FU-OV-1 cells, LOU-NH91 cells, 23132/87 cells, CAL-27 cells, BHY cells, SCC-25 cells, A-431 cells, human primary epidermal keratinocytes (HPEK), and C2C12 cells were seeded into 96-well plates suitable for fluorescence assays (CORNING #3598) at following initial cell numbers: 1000 cells per well for HL-60; 1000 cells per well for NB-4; 5000 cells per well for HH; 5000 cells per well for RPMI-8402; 1500 cells per well for TANOUE; 9000 cells per well for TT; 2000 cells per well for HeLa; 3000 cells per well for MDA-MB-231; 3000 cells per well for FU-OV-1; 4000 cells per well for LOU-NH91; 2000 cells per well for 23132/87; 2000 cells per well for CAL-27; 1500 cells per well for BHY; 1500 cells per well for SCC-25; 700 cells per well for A-431; 1000 cells per well for HPEK; 500 cells per well for C2C12. The cells were treated with compounds at indicated final concentrations (diluted from the 1000× stock-solutions in DMSO to a final DMSO concentration of 0.1% v/v in H2O (Water For Injection, WFI, Fisherscientific #10378939)) or with the empty carrier DMSO at 0.1% v/v as control for 5 days. At day 5 after starting the treatments the cells were subjected to the alamarBlue® Proliferation Assay (Bio-Rad Serotec GmbH, BUF012B) according to the protocol of the manufacturer. The readout was taken with a multi-well plate-reader in the fluorescence mode with applying a filter for excitation at 560 nm (band width 10 nm) and for emission at 590 nm (band width 10 nm). Control treatments for growth inhibition with commercial compounds such as Methotrexate (MTREX) and Resveratrol (RES) were included on every plate. Some of the test compounds of the present invention were obtained and applied as their salts. According cases are indicated in the column “Specification” in Table 55 to Table 92 and by their sum formula in Table 93.
(§2) The assays were performed in duplicate or more replicates of independent single experiments each containing a six-fold replicate for every condition. For every individual plate, the measured fluorescence intensity values of the conditions with compound treatment were normalized against the corresponding equally weighted arithmetic mean of the fluorescence intensity values of the six DMSO treated control wells in order to obtain the relative values to a baseline level of 1.0.
(§3) Two independent outlier analyses were performed according to the methods by Peirce and Chauvenet (Ross, Journal of Engineering Technology 2003, 1-12). Outliers confirmed by at least one of the methods were excluded from the calculations but not more than one value out of six per compound within a single experiment. The weighted arithmetic mean (here abbreviated as AVEw) for each compound was calculated from the normalized values over all independent replicates of the single experiments comprising the six replicates each. The corresponding standard deviation for the weighted arithmetic mean was calculated according to the method described by Bronstein et al. (Bronstein, Semendjajew, Musiol, Müihlig, Taschenbuch der Mathematik, 5th edition 2001 (German), publisher: Verlag Harri Deutsch, Frankfurt am Main and Thun) and was combined with the Gauß' error propagation associated with the performed calculation for the normalization. The resulting standard deviation is herein referred to as “combined standard deviation”. […]

[2] = system: 23132/87 cells (human gastric adenocarcinoma cells); test: Proliferation assay (alamarBlue) with 23132/87 cells; conditions: for Activity Range (weighted arithmetic mean AVEw of normalized fluorescence intensity, relative to DMSO basis level 1.0): 20 μM; for Activity Range (weighted arithmetic mean of normalized fluorescence intensity, relative to DMSO basis level 1.0): control at 40 μM
Description: as §1, §2, §3

[3] = system: LOU-NH91 cells (human lung squamous cell carcinoma cells); test: Proliferation assay (alamarBlue) with LOU-NH91 cells; conditions: for Activity Range (weighted arithmetic mean AVEw of normalized fluorescence intensity, relative to DMSO basis level 1.0): 20 μM; for Activity Range (weighted arithmetic mean of normalized fluorescence intensity, relative to DMSO basis level 1.0): control at 40 μM
Description: as §1, §2, §3

[4] = system: FU-OV-1 cells (human ovarian carcinoma cells); test: Proliferation assay (alamarBlue) with FU-OV-1 cells
Description: as §1, §2, §3

[5] = system: TT cells (human medullary thyroid carcinoma cells); test: Proliferation assay (alamarBlue) with TT cells
Description: as §1, §2, §3

[6] = system: SCC-25 cells (human tongue squamous cell carcinoma cells); test: Proliferation assay (alamarBlue) with SCC-25 cells; conditions: for Activity Range (weighted arithmetic mean AVEw of normalized fluorescence intensity, relative to DMSO basis level 1.0): 20 μM; for Activity Range (weighted arithmetic mean of normalized fluorescence intensity, relative to DMSO basis level 1.0): control at 40 μM
Description: as §1, §2, §3

[7] = system: C2C12 cells (murine myoblast cells); test: Proliferation assay (alamarBlue) with C2C12 cells
Description: The antiproliferative activities of compounds falling under formula (Ia), (Ib) and (Ic), respectively, were investigated on cells or cell lines originating from a disorder of the haematopoietic system, including the myeloid cell compartment and the lymphoid cell compartment (T-cells and B-cells), the neuroendocrine system, the cervix, the breast, the ovaries, the lung, the gastrointestinal tract, and the mucosal epithelium, as well as from the skin epithelium and from the muscle. To this end, HL-60 cells, NB-4 cells, HH cells, RPMI-8402 cells, TANOUE cells, TT cells, HeLa cells, MDA-MB-231 cells, FU-OV-1 cells, LOU-NH91 cells, 23132/87 cells, CAL-27 cells, BHY cells, SCC-25 cells, A-431 cells, human primary epidermal keratinocytes (HPEK), and C2C12 cells were seeded into 96-well plates suitable for fluorescence assays (CORNING #3598) at following initial cell numbers: 1000 cells per well for HL-60; 1000 cells per well for NB-4; 5000 cells per well for HH; 5000 cells per well for RPMI-8402; 1500 cells per well for TANOUE; 9000 cells per well for TT; 2000 cells per well for HeLa; 3000 cells per well for MDA-MB-231; 3000 cells per well for FU-OV-1; 4000 cells per well for LOU-NH91; 2000 cells per well for 23132/87; 2000 cells per well for CAL-27; 1500 cells per well for BHY; 1500 cells per well for SCC-25; 700 cells per well for A-431; 1000 cells per well for HPEK; 500 cells per well for C2C12. […] The readout was taken with a multi-well plate-reader in the fluorescence mode with applying a filter for excitation at 560 nm (band width 10 nm) and for emission at 590 nm (band width 10 nm). […]
as §2, with “1.0. […]” for “1.0.”

Oc1ccc(C=Cc2cc(O)cc(O)c2)cc1 [RES, Resveratrol]
Activity Range: weighted arithmetic mean (AVEw) of normalized fluorescence intensity, proliferation assay with RPMI-8402 cells [1]: 0.1 ± 0.0
Activity Range (weighted arithmetic mean AVEw of normalized fluorescence intensity, relative to DMSO basis level 1.0) ([2]; Table 75 (novel compounds)): 0.5 ± 0.1
Activity Range (weighted arithmetic mean AVEw of normalized fluorescence intensity, relative to DMSO basis level 1.0) ([2]; Table 76 (compounds disclosed in PCT/EP2018/054686)): 0.5 ± 0.1
Activity Range (weighted arithmetic mean of normalized fluorescence intensity, relative to DMSO basis level 1.0) ([2]; Table 75): 0.2 ± 0.0
Activity Range (weighted arithmetic mean of normalized fluorescence intensity, relative to DMSO basis level 1.0) ([2]; Table 76): 0.2 ± 0.0
Activity Range (weighted arithmetic mean AVEw of normalized fluorescence intensity, relative to DMSO basis level 1.0) ([3]; Table 73 (novel compounds)): 0.9 ± 0.1
Activity Range (weighted arithmetic mean AVEw of normalized fluorescence intensity, relative to DMSO basis level 1.0) ([3]; Table 74 (compounds disclosed in PCT/EP2018/054686)): 0.9 ± 0.1
Activity Range (weighted arithmetic mean of normalized fluorescence intensity, relative to DMSO basis level 1.0) ([3]; Table 73): 0.7 ± 0.0
Activity Range (weighted arithmetic mean of normalized fluorescence intensity, relative to DMSO basis level 1.0) ([3]; Table 74): 0.7 ± 0.0
Activity Range: weighted arithmetic mean (AVEw) of normalized fluorescence intensity relative to DMSO basis level 1.0 ([4]; compound at 20 μM, Table 71 (novel compounds)): 0.7 ± 0.0
Activity Range: weighted arithmetic mean (AVEw) of normalized fluorescence intensity relative to DMSO basis level 1.0 ([4]; compound at 20 μM, Table 72 (compounds of PCT/EP2018/054686)): 0.7 ± 0.0
Activity Range: weighted arithmetic mean (AVEw) of normalized fluorescence intensity relative to DMSO basis level 1.0 ([4]; control at 40 μM, Table 71): 0.4 ± 0.0
Activity Range: weighted arithmetic mean (AVEw) of normalized fluorescence intensity relative to DMSO basis level 1.0 ([4]; control at 40 μM, Table 72): 0.4 ± 0.0
Activity Range: weighted arithmetic mean (AVEw) of normalized fluorescence intensity relative to DMSO basis level 1.0 ([5]; compound at 20 μM, Table 65 (novel compounds)): 0.9 ± 0.0
Activity Range: weighted arithmetic mean (AVEw) of normalized fluorescence intensity relative to DMSO basis level 1.0 ([5]; compound at 20 μM, Table 66 (compounds of PCT/EP2018/054686)): 0.9 ± 0.0
Activity Range: weighted arithmetic mean (AVEw) of normalized fluorescence intensity relative to DMSO basis level 1.0 ([5]; control at 40 μM, Table 65): 0.7 ± 0.0
Activity Range: weighted arithmetic mean (AVEw) of normalized fluorescence intensity relative to DMSO basis level 1.0 ([5]; control at 40 μM, Table 66): 0.7 ± 0.0
Activity Range (weighted arithmetic mean AVEw of normalized fluorescence intensity, relative to DMSO basis level 1.0) ([6]; Table 82 (novel compounds)): 0.4 ± 0.1
Activity Range (weighted arithmetic mean AVEw of normalized fluorescence intensity, relative to DMSO basis level 1.0) ([6]; Table 83 (compounds disclosed in PCT/EP2018/054686)): 0.4 ± 0.1
Activity Range (weighted arithmetic mean of normalized fluorescence intensity, relative to DMSO basis level 1.0) ([6]; Table 82): 0.1 ± 0.0
Activity Range (weighted arithmetic mean of normalized fluorescence intensity, relative to DMSO basis level 1.0) ([6]; Table 83): 0.1 ± 0.0
Activity Range: weighted arithmetic mean (AVEw) of normalized fluorescence intensity, relative to DMSO basis level of 1.0 ([7]; compounds and controls at 20 μM): 0.8 ± 0.0
Activity Range: weighted arithmetic mean (AVEw) of normalized fluorescence intensity, relative to DMSO basis level of 1.0 ([7]; control at 40 μM): 0.2 ± 0.1
